Data taken from patent publication US10568930B2, “Agents and methods of treatment” (Hexima Limited, priority 2014, dated 2020).
Read-outs that look alike come from different tables or passages of the source.

Legend:
Candida albicans [1] = assay: Antifungal growth assay, defensin plus proteinase inhibitor; format: cell-based; set-up: key to Synergy: Io-Ee in % inhibition points; >60 high synergy, <15 none; settings: for Expected inhibition: Ee, Limpel formula; for Synergy: Io-Ee
Protocol: (§1) Spores are isolated from sporulating fungus spp. growing on yeast extract peptone dextrose agar (Candida albicans, Cryptococcus gattii—1.5×10^6) or ½ strength Sabouraud dextrose agar (Trichophyton interdigitale, Microsporum fulvum—5×10^4). Spores are removed from the plates by the addition of ½ strength potato dextrose broth (PDB). Spore concentrations are measured using a haemocytometer.
(§2) Antifungal assays were conducted in 96 well microtitre plates. Wells were loaded with 10 μL of filter sterilized (0.22 μm syringe filter, Millipore) defensin (10× stock for each final concentration) or water, 10 μL, of filter sterilized (0.22 μm syringe filter, Millipore) proteinase inhibitor or chemical fungicide (10× stock for each final concentration) or water and 80 μL of 5×10^3 spores/mL in ½ strength PDB. The plates were incubated at 24° C. Fungal growth was assayed by measuring optical density at 595 nm (A595) using a microtitre plate reader (SpectraMax Pro M2; Molecular Devices. Growth was allowed to proceed until the optical density (OD) of the fungus in the absence of any test defensin reached an OD of 0.2. Each test was performed in duplicate.
(§3) Synergy is classified as the difference between the observed % fungal growth inhibition caused by the combination of a defensin and a proteinase inhibitor (or a defensin and a chemical fungicide) (Io value) and the expected % fungal growth inhibition of the defensin and the proteinase inhibitor (or the defensin and the chemical fungicide) based on the sum of the % fungal growth inhibition of the defensin and the proteinase inhibitor (or the defensin and the chemical fungicide) on their own (Ee value calculated according to the Limpel formula used by Richer et al. (1987) supra). The difference, Io-Ee, is the synergy value. A synergy value up to 15 means no significant synergy; 15-30 is a low level of synergy; 30-60 is a medium level of synergy; and >60 is a high level of synergy. Synergy calculations are presented in Tables 2 through 7 wherein, as indicated above, Ee is the expected effect from the additive response according to Limpel's formula expressed as percent inhibition and To is the percent inhibition observed. Synergy occurs when To values are higher than Ee values.

Cryptococcus gattii = assay: as above; format: cell-based; settings: for Expected inhibition: Ee, Limpel formula; for Synergy: Io-Ee
Protocol: as §1, §2, §3

[2] = test system: Trichophyton interdigitale; assay: as above; format: cell-based; settings: for Expected inhibition: Ee, Limpel formula; for Synergy: Io-Ee
Protocol: as §1, §2, §3

Candida albicans [3] = assay: Antifungal growth assay, defensin plus chemical fungicide; format: cell-based; set-up: key to Synergy: Io-Ee in % inhibition points; <15 none, 15-30 low, 30-60 medium, >60 high; settings: for Expected inhibition: Ee, Limpel formula; for Synergy: Io-Ee
Protocol: Chemical fungicides were sourced commercially and were prepared as 10× stock solutions in H2O (caspofungin and fenpropimorph) or as a 100× stock in methanol (terbinafine).
as §1, §2, §3

Microsporum fulvum = assay: Antifungal growth assay, defensin plus proteinase inhibitor; format: cell-based; settings: for Expected inhibition: Ee, Limpel formula; for Synergy: Io-Ee
Protocol: as §1, §2, §3

plasma membrane = settings: cited from earlier work
[4] = defensin 2 μM + BPTI (0.625 μM)
[5] = defensin 2 μM + HyCPI6 (2.5 μM)
[6] = defensin 2 μM + SlCys9N (2.5 μM)
[7] = defensin 0.5 μM + BPTI (0.625 μM)
[8] = defensin 0.5 μM + HvCPI6 (2.5 μM)
[9] = defensin 0.5 μM + SlCys9N (2.5 μM)
[10] = defensin 1.5 μM + Caspofungin (2 ng/ml)
[11] = defensin 1.5 μM + Fenpropimorph (2 ug/ml)
[12] = defensin 1.5 μM + Terbinafine (4 ng/ml)
[13] = defensin 2 μM + HvCPI6 (2.5 μM)
[14] = defensin 0.5 μM + HyCPI6 (0.625 μM)
[15] = defensin 0.5 μM + SlCys9N (5 μM)
[16] = defensin 1 μM + BPTI (0.625 μM)
[17] = defensin 1 μM + HvCPI6 (2.5 μM)
[18] = defensin 1 μM + SlCys9N (2.5 μM)
[19] = permeabilizing defensin 1 μM + Caspofungin (2 ng/ml)

HXP4: artificial (synthetic) defensin variant, SEQ ID NO:8; permeabilizing (RECKTESHRFKGPCITKPPCRKACISEKFTDGHCSKILRRCLCTKPC; HXP4 protein)
Observed inhibition (Candida albicans [1]; [4]): 100%
Expected inhibition (Candida albicans [1]; [4]): 16.2%
Synergy (Candida albicans [1]; [4]): 83.8
Observed inhibition (Candida albicans [1]; [5]): 93.5%
Expected inhibition (Candida albicans [1]; [5]): 15.9%
Synergy (Candida albicans [1]; [5]): 77.6
Observed inhibition (Candida albicans [1]; [6]): 92.4%
Expected inhibition (Candida albicans [1]; [6]): 33%
Synergy (Candida albicans [1]; [6]): 59.4
Observed inhibition (Cryptococcus gattii; [7]): 97.4%
Expected inhibition (Cryptococcus gattii; [7]): 48.8%
Synergy (Cryptococcus gattii; [7]): 48.6
Observed inhibition (Cryptococcus gattii; [8]): 97.4%
Expected inhibition (Cryptococcus gattii; [8]): 18.6%
Synergy (Cryptococcus gattii; [8]): 78.8
Observed inhibition (Cryptococcus gattii; [9]): 99.3%
Expected inhibition (Cryptococcus gattii; [9]): 0.0%
Synergy (Cryptococcus gattii; [9]): 99.3
Observed inhibition [2, 7]: 69.0%
Expected inhibition [2, 7]: 32.9%
Synergy [2, 7]: 36.1
Observed inhibition [2, 8]: 56.8%
Expected inhibition [2, 8]: 31.1%
Synergy [2, 8]: 25.7
Observed inhibition [2, 9]: 53.0%
Expected inhibition [2, 9]: 9.7%
Synergy [2, 9]: 43.4
Observed inhibition (Candida albicans [3]; [10]): 64.5%
Expected inhibition (Candida albicans [3]; [10]): 14.5%
Synergy (Candida albicans [3]; [10]): 50.0
Observed inhibition (Candida albicans [3]; [11]): 97.6%
Expected inhibition (Candida albicans [3]; [11]): 15%
Synergy (Candida albicans [3]; [11]): 82.6
Observed inhibition (Candida albicans [3]; [12]): 82.7%
Expected inhibition (Candida albicans [3]; [12]): 44.8%
Synergy (Candida albicans [3]; [12]): 37.9

NaD1: Solanaceous Class II plant defensin from flowers of Nicotiana alata (Q8GTMO); permeabilizing defensin (RECKTESNTFPGICITKPPCRKACISEKFTDGHCSKILRRCLCTKPC; UniProt Q8GTM0 26-72, looked up)
Observed inhibition (Candida albicans [1]; [4]): 94.1%
Expected inhibition (Candida albicans [1]; [4]): 29.7%
Synergy (Candida albicans [1]; [4]): 64.4
Observed inhibition (Candida albicans [1]; [5]): 64.7%
Expected inhibition (Candida albicans [1]; [5]): 0.0%
Synergy (Candida albicans [1]; [5]): 64.7
Observed inhibition (Candida albicans [1]; [6]): 94.8%
Expected inhibition (Candida albicans [1]; [6]): 31.9%
Synergy (Candida albicans [1]; [6]): 62.9
Observed inhibition (Cryptococcus gattii; [4]): 95.6%
Expected inhibition (Cryptococcus gattii; [4]): 22.0%
Synergy (Cryptococcus gattii; [4]): 73.7
Observed inhibition (Cryptococcus gattii; [13]): 96.2%
Expected inhibition (Cryptococcus gattii; [13]): 32.1%
Synergy (Cryptococcus gattii; [13]): 64.1
Observed inhibition (Cryptococcus gattii; [6]): 98.8%
Expected inhibition (Cryptococcus gattii; [6]): 0.0%
Synergy (Cryptococcus gattii; [6]): 98.8
Observed inhibition (Microsporum fulvum; [7]): 52.9%
Expected inhibition (Microsporum fulvum; [7]): 34.3%
Synergy (Microsporum fulvum; [7]): 18.6
Observed inhibition (Microsporum fulvum; [14]): 43.8%
Expected inhibition (Microsporum fulvum; [14]): 19.0%
Synergy (Microsporum fulvum; [14]): 24.8
Observed inhibition (Microsporum fulvum; [15]): 79.9%
Expected inhibition (Microsporum fulvum; [15]): 40.7%
Synergy (Microsporum fulvum; [15]): 39.2
Observed inhibition [2, 16]: 89.1%
Expected inhibition [2, 16]: 57.9%
Synergy [2, 16]: 31.2
Observed inhibition [2, 17]: 71.6%
Expected inhibition [2, 17]: 33.5%
Synergy [2, 17]: 38.1
Observed inhibition [2, 18]: 81.1%
Expected inhibition [2, 18]: 28.1%
Synergy [2, 18]: 53.0
Observed inhibition (Candida albicans [3]; [19]): 61.7%
Expected inhibition (Candida albicans [3]; [19]): 1.2%
Synergy (Candida albicans [3]; [19]): 60.5
Membrane permeabilization (plasma membrane; at concentrations corresponding to the IC50): significant membrane permeabilization
Membrane permeabilization (plasma membrane; at low concentrations that do not cause growth inhibition, van der Weerden et al. (2008)): some membrane permeabilization
Time at which permeabilization begins (plasma membrane; van der Weerden et al. (2010)): ≤ 15 min
Time at which permeabilization reaches its maximum (plasma membrane; van der Weerden et al. (2010)): 80 min
